Experiments:
[1] = target: T1, human NPY Y1 receptor subtype (Homo sapiens, UniProt P25929); assay: NPY Y1 receptor binding, [125I]PYY on SK-N-MC cells; conditions: test compounds at 5 µM final concentration, [125I]PYY about 50 pM, read-out: IC50 (µM) NPY receptor indicated hY1
T1 construct: host or cells: SK-N-MC cells
T1 sequence (P25929 1-384): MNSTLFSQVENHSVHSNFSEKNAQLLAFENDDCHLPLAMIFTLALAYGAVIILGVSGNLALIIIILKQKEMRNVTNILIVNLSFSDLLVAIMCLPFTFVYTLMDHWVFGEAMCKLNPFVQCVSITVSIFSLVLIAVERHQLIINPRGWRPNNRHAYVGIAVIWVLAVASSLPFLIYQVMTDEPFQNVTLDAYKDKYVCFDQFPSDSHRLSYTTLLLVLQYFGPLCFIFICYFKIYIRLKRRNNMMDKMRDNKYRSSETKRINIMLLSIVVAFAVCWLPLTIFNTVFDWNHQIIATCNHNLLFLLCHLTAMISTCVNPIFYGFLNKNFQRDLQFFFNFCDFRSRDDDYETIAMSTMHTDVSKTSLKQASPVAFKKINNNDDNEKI
Description: For instance, test compounds antagonistic to human NPY Y1 receptor subtype can be identified by a modified method of Gordon et al., J. Neurochem. 55:506-513,(1990), wherein SK-N-MC cells (ATCC, Rockville, ND) are plated in 24-well plates. Once confluent, the cells are rinsed with Dulbecco's phosphate buffered saline (DPBS). Cells are then preincubated in binding buffer containing serum-free DMEM, 25 mM HEPES (pH 7.3), 0.5% bovine serum albumin (BSA), 0.1% bacitracin and 0.1mM phenylmethylsulfonyl fluoride for 30 minutes at room temperature. Test compounds at a final concentration of 5 µM, and [^125I] PYY (about 50 pM:NEN-DuPont) are added to the wells, and the cells are incubated for an additional 3 hours at room temperature, followed by rinsing with ice-cold DPBS. Nonspecific binding is defined with 1 µM NPY. After lysing the cells with 1% Triton X-100, the amount of radioactivity in the lysates is quantitated with a gamma counter.

human Y4/PP1 = human Y4/PP1 (Homo sapiens, UniProt P50391); assay: NPY Y4/PP1 receptor membrane binding, [125I] human PP; conditions: membrane protein; 50 pM [125I] human PP; test compounds at 5 µM final concentration; read-out: IC50 (µM) NPY receptor indicated hY4/pp1
Description: (§1) Assays to determine binding affinity for human NPY Y2 and Y4/PP1 receptor subtypes are performed on GF/C Millipore 96-well plates pretreated with 0.02% polyethylenimine. The binding buffer for rat NPY Y2 receptor subtype binding is Krebs-Ringer bicarbonate (pH 7.4) containing 0.01% BSA and 0.005% bacitracin. Samples consist of membrane protein, 25 pM [^125I]PYY and test compounds at 5 µM final concentration. Nonspecific binding is defined by 1 µM NPY. The binding buffer for human Y4/PP1 binding consists of 137 mM NaCl, 5.4 mM KCl, 0.44 mM KH2PO4, 1.26 mM CaCl2, 0.81 mM MgSO4, 20 mM HEPES, 1 mM dithiothreitol, 0.1% bacitracin, 100 mg/l streptomycin sulfate, 1 mg/l aprotinin, 10 mg/ml soybean trypsin inhibitor and 0.3% BSA, pH 7.4. Samples consist of membrane protein, 50 pM human [^125I] human PP (hPP:NEN DuPont, Boston MA) and test compounds diluted to a final concentration of 5 µM. One µM hPP is used to define nonspecific binding. After a 2 hour incubation at room temperature with constant mixing, the samples are aspirated on a vacuum manifold, and rinsed with ice-cold binding buffer. The amount of radioactivity in each well is quantitated with either gamma counting or liquid scintillation.

[2] = target: T2, human NPY Y5 receptor subtype (Homo sapiens, UniProt Q15761); assay: NPY Y5 receptor membrane binding, [125I]PYY (human); conditions: membrane protein; 75-100 pM [125I]PYY; 50% inhibition of specific binding; read-out: IC50 (µM) NPY receptor indicated hY5
T2 sequence (Q15761 1-445): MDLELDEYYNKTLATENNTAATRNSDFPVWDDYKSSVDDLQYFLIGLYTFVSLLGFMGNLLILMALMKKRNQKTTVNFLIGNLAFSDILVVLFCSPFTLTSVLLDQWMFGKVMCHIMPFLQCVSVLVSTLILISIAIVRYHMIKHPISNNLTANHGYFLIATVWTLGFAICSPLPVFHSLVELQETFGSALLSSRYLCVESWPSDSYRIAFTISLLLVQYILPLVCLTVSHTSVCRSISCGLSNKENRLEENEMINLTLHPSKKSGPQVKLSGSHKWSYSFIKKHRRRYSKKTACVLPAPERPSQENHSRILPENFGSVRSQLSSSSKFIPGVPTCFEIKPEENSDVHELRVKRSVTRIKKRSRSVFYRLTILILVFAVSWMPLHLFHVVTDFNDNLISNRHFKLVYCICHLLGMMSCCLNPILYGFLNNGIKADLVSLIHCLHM
Description: (§2) Assays to determine human and rat NPY Y5 receptor subtype binding affinity are performed on GF/C Millipore 96-well plates pretreated with 0.02% polyethylenimine. The binding buffer is 25 mM Tris, 120 mM NaCl, 5 mM KCl, 1.2 mM KH2PO4, 2.5 mM CaCl2, 1.2 mM MgSO4, 0.1% BSA and 0.5 mg/ml bacitracin, pH 7.4. Samples consist of membrane protein, 75-100 pM [^125I] PYY (porcine, NEN-DuPont) and test compounds diluted in binding buffer. Nonspecific binding is defined by 1 µM PYY. After a 2 hour incubation at room temperature with constant mixing, the samples are aspirated on a vacuum manifold and rinsed with ice-cold binding buffer. The amount of radioactivity in each well is quantitated with either gamma counting or liquid scintillation. IC50 values, which correspond to 50% inhibition of specific binding, are determined with non-linear regression analysis.

[3] = target: T3, rat NPY Y5 receptor subtype (Rattus norvegicus, UniProt Q63634); assay: NPY Y5 receptor membrane binding, [125I]PYY (rat); conditions: for IC50: membrane protein, 75-100 pM [125I]PYY, 50% inhibition of specific binding, read-out: IC50 (µM) NPY receptor indicated rY5; for NPY receptor indicated rY5, %@1µM: printed in the rY5 IC50 column
T3 sequence (Q63634 1-445): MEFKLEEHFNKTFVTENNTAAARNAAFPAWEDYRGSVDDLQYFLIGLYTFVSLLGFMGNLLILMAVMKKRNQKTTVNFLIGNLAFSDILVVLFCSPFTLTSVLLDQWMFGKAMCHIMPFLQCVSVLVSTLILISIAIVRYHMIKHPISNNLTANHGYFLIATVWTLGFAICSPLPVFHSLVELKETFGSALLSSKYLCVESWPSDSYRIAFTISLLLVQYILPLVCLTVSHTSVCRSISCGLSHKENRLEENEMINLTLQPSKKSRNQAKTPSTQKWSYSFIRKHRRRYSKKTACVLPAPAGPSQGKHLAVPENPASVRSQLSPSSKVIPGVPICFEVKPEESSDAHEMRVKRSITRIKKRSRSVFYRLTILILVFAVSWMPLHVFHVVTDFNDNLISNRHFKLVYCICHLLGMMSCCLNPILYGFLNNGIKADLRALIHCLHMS
Description: as §2

rat NPY Y5 receptor = target: T4, rat NPY Y5 receptor (Rattus norvegicus, UniProt Q63634); assay: In vitro functional assay, forskolin-stimulated cAMP in cells stably expressing the receptor; type: cell-based; conditions: percentage of forskolin-stimulated adenylate cyclase; 1 µM forskolin; test compound 10 µM; 80 - 120% indicates no significant agonistic effect
T4 construct: expressed in transfected cells
T4 sequence (Q63634 1-445): T3 sequence (Q63634 1-445)
Description: An in vitro functional assay to determine rat NPY Y5 receptor subtype binding affinity is performed by resuspending cells stably expressing the rat NPY Y5 receptor in serum-free DMEM containing 10 mM HEPES (pH 7.4) and 1 mM isobutylmethylxanthine (IBMX). One µM forskolin and test compounds at a final concentration of 10 µM are then added to the cells. After a 20 minute incubation of the samples at 37°C, the assay is stopped by placing the samples in boiling water for 3 minutes. The cAMP produced in each sample is quantitated with a radioimmunoassay kit (NEN DuPont). Data are expressed as a percentage of forskolin-stimulated adenylate cyclase. Data between 80 - 120% indicates no significant agonistic effect.

human NPY Y2 = target: T5, human NPY Y2 (Homo sapiens, UniProt P49146); assay: NPY Y2 receptor membrane binding, [125I]PYY; conditions: membrane protein; 25 pM [125I]PYY; test compounds at 5 µM final concentration; read-out: IC50 (µM) NPY receptor indicated hY2
T5 sequence (P49146 1-381): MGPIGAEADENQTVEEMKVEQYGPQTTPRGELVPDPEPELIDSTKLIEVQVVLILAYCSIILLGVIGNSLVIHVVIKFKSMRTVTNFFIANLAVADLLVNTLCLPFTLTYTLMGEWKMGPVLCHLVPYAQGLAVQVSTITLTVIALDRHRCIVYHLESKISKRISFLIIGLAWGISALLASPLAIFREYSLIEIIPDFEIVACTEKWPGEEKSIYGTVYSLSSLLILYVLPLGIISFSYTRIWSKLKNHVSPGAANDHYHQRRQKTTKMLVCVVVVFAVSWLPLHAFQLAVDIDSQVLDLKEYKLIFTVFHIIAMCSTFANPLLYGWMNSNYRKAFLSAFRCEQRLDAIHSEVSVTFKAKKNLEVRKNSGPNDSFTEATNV
Description: as §1, with “The binding buffer for rat NPY Y2 receptor subtype binding is Krebs-Ringer bicarbonate (pH 7.4) containing 0.01% BSA and 0.005% bacitracin.” left out

human Y4/PP1, sequence (P50391 whole entry): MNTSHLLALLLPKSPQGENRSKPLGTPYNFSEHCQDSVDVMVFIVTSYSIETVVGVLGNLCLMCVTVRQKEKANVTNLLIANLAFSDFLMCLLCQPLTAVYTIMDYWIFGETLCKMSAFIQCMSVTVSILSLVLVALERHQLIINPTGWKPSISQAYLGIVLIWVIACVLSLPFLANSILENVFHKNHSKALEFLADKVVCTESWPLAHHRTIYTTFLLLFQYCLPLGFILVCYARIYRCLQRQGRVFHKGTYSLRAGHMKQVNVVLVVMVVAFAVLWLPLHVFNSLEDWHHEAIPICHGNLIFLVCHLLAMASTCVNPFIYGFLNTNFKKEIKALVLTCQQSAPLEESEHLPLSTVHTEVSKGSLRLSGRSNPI

Compound | IC50 [1] [µM] | IC50 (human Y4/PP1) [µM] | IC50 [2] [µM] | IC50 [3] [µM] | % forskolin at 10 µM (rat NPY Y5 receptor) [%] | IC50 (human NPY Y2) [µM] | NPY receptor indicated rY5, %@1µM [3] [%@1µM]
Cc1ccc(S(=O)(=O)CC(C(=O)c2nc3ccccc3[nH]2)c2ccc(F)cc2)cc1 (centres unmarked) [Compound 9, 1-(1H-Benzoimidazol-2-yl)-2-(4-fluoro-phenyl)-3-(toluene-4-sulfonyl)-propan-1-one] | > 5 | > 5 | 0.015 | 0.014 | 105 |  | 
Cc1ccc(S(=O)(=O)CC(C(=O)c2nc3cc(C)ccc3[nH]2)c2ccccc2)cc1 (centres unmarked) [Compound 13, (5-Methyl-1H-benzoimidazol-2-yl)-2-phenyl-3-(toluene-4-sulfonyl)-propan-1-one] |  | > 5 | 0.045 | 0.036 |  | > 5 | 
Cc1ccc(S(=O)(=O)CC(C(=O)c2nc3ccccc3[nH]2)c2ccccc2)cc1 (centres unmarked) [Compound 15, 1-(1H-Benzoimidazol-2-yl)-2-phenyl-3-(toluene-4-sulfonyl)-propan-1-one] | > 5 | > 5 | 0.005 |  |  | > 5 | 
O=C(c1nc2ccccc2[nH]1)C(CS(=O)(=O)c1ccc(Br)cc1)c1ccccc1 (centres unmarked) [Compound 11, 1-(1H-Benzoimidazol-2-yl)-3-(4-bromo-benzenesulfonyl)-2-phenyl-propan-1-one] |  | > 5 | 0.008 |  |  | > 5 | 
Cc1ccc(S(=O)(=O)CC(C(=O)c2ccc3ccccc3n2)c2ccccc2)cc1 (centres unmarked) [Compound 1] | > 5 | > 5 |  | 9.8 | 78 | > 5 | 
Cc1ccc(SCC(C(=O)c2nc3ccccc3[nH]2)c2ccccc2)cc1 (centres unmarked) [Compound 4, (1H-Benzoimidazol-2-yl)-2-phenyl-3-p-tolylsulfanyl-propan-1-one] |  | > 5 |  |  |  | > 5 | 2
Cc1ccc([S+]([O-])CC(C(=O)c2nc3ccccc3[nH]2)c2ccccc2)cc1 (centres unmarked) [Compound 5, (1H-Benzoimidazol-2-yl)-2-phenyl-3-(toluene-4-sulfinyl)-propan-1-one] |  | > 5 | 0.025 | 0.025 |  | > 5 | 
Cc1ccc(S(=O)(=O)CC(C(=O)c2ncc[nH]2)c2ccccc2)cc1 (centres unmarked) [Compound 3, (1H-Imidazol-2-yl)-2-phenyl-3-(toluene-4-sulfonyl)-propan-1-one] |  | > 5 |  |  |  | > 5 | 30
O=C(c1nc2ccccc2[nH]1)C(CS(=O)(=O)c1cccc2ccccc12)c1ccccc1 (centres unmarked) [Compound 12, 1-(1H-Benzoimidazol-2-yl)-3-(naphthalene-1-sulfonyl)-2-phenyl-propan-1-one] | > 5 | > 5 | 0.011 |  |  | > 5 | 

— EP1007514B1, “HETEROCYCLIC KETONES AS NPY Y5 ANTAGONISTS” (BAYER CORPORATION, priority 1997, dated 1999)
